Assay results taken from patent publication US12427134B2, “Methods of reducing the risk of cardiovascular events in a subject with atrial fibrillation and/or atrial flutter” (priority 2019, dated 2025).

Test system: hypertriglyceridemic patients with cardiovascular disease or at high risk for cardiovascular disease
Assay: REDUCE-IT: fasting lipid, lipoprotein and inflammatory biomarkers and serum EPA, change from baseline
Format: in vivo, human
Settings: for Approximated LDL-C (Hopkins), median difference from placebo in percent change from baseline: Hodges-Lehmann estimate
Description: Fasting Lipid Profile: The fasting lipid panel included: TG, TC, LDL-C, HDL-C, non-HDL-C, and VLDL-C. At all visits, LDL-C was calculated using the Friedewald equation. At Visit 1 and Visit 1.1 direct LDL-C were used if at the same visit TG >400 mg/dL (4.52 mmol/L). These LDL-C values were used for the evaluation of the LDL-C inclusion criterion (LDL-C qualifying measurements for randomization) and for the assessment of changes in the statin therapy when LDL-C was not at goal. […] In addition, irrespective of the TG levels, at Visit 2 (0 Months of Follow-up, baseline) and at Visit 4 (12 Months of Follow-up), LDL-C were measured by preparative ultracentrifugation. These preparative ultracentrifugation LDL-C measurements were used in the statistical analysis including the calculation of the percent change from baseline (1 year versus baseline). Hopkins LDL-C was calculated for each visit.
Biomarkers Assays: The biomarker assays included: hsCRP, Apo B and hsTnT.
The fasting lipid panel was tested at Screening (Visit 1 or Visit 1.1), Randomization visit (Visit 2; Day 0), Visit 3 (Day 120; ˜4 Months) and all other follow-up visits including the last visit. For change from baseline to 1 year preparative ultracentrifugation measurements for LDL-C were analyzed, unless this value was missing. If the LDL-C preparative ultracentrifugation values were missing, then another LDL-C value was used, with prioritization of values obtained from LDL-C Direct measurements, followed by LDL-C derived by the Friedewald calculation (only for subjects with TG <400 mg/dL), and finally LDL-C derived using the calculation published by Hopkins University investigators (Martin S S, Blaha M J, Elshazly M B, et al. Comparison of a novel method vs the Friedewald equation for estimating low-density lipoprotein cholesterol levels from the standard lipid profile. JAMA. 2013; 310:2061-8.). In addition, change from baseline to day 120 in LDL-C utilizing Friedewald's and Hopkins methods was analyzed, using the arithmetic mean of LDL-C obtained at Visit 2 (Day 0) and the preceding Visit 1 (or Visit 1.1). If one of these values was missing, the single available LDL-C value was used. LDL-C according to Hopkins was calculated at each visit.
The randomization visit was considered Baseline. If a baseline value was not available from the randomization visit, then the latest screening value was used. For measurements of lipids, lipoproteins and inflammatory markers, the change and the percent change were summarized at each visit. Since these biomarkers are typically not normally distributed, the Wilcoxon rank-sum test was used for treatment comparisons of the percent change from baseline, and medians and quartiles were provided for each treatment group. The medians of the differences between the treatment groups and 95% CIs were estimated with the Hodges-Lehmann method. In addition, shift-tables were generated as appropriate.

[1] = Last Visit, vs placebo, ITT population
[2] = baseline to the last study value

Question: Which results are given for `CC/C=C\C/C=C\C/C=C\C/C=C\C/C=C\CCCC(=O)OCC` [AMR101, eicosapentaenoic acid ethyl ester]?
Answer: Apo B Median Observed Value (Baseline, ITT population): 82.0 mg/dL; LDL-C Hopkins Median Observed Value (Baseline, ITT population): 85.8 mg/dL; LDL-C derived Median Observed Value (Baseline, ITT population): 74.0; Non-HDL-C Median Observed Value (Baseline, ITT population): 118.0 mg/dL; Triglycerides Median Observed Value (Baseline, ITT population): 216.5 mg/dL; hsCRP Median Observed Value (Baseline, ITT population): 2.2 mg/L; LDL-C derived Median Observed Value (Last Visit, ITT population): 77.0; Triglycerides Median Absolute Change from Baseline (Last Visit, ITT population): 45.0 mg/dL; LDL-C derived Between Group Difference Median % Change from Baseline [1]: −6.6%; LDL-C derived Between Group Difference Median Absolute Change from Baseline [1]: −5.0; HDL-C, median (Year 1): 39.0 mg/dL; LDL-C, median (Year 1): 77.0 mg/dL; HDL-C, median between group difference, % change from baseline (Year 1, vs placebo): −6.3%; HDL-C, median between group difference, absolute change from baseline (Year 1, vs placebo): -2.5 mg/dL; LDL-C, median between group difference, % change from baseline (Year 1, vs placebo): −6.6%; LDL-C, median between group difference, absolute change from baseline (Year 1, vs placebo): -5.0 mg/dL; Triglycerides Between Group Difference Median Absolute Change from Baseline (Year 1, vs placebo, ITT population): 44.5 mg/dL; Non-HDL-C Median Observed Value (Year 2, ITT population): 113.0 mg/dL; Triglycerides Between Group Difference Median % Change from Baseline (Year 2, vs placebo, ITT population): −19.7%; HDL-C Median Observed Value (Year 3, ITT population): 40.0 mg/dL; Non-HDL-C Median Absolute Change from Baseline (Year 3, ITT population): 4.8 mg/dL; Non-HDL-C Median % Change from Baseline (Year 4, ITT population): 4.2%; Non-HDL-C Median % Change from Baseline (Year 5, ITT population): 4.4%; Approximated LDL-C (Hopkins), median change from baseline (baseline to one year): -1.1 mg/dL; Approximated LDL-C (Hopkins), median percent change from baseline (baseline to one year): −1.2%; Triglycerides, median change from baseline (baseline to one year): -39.0 mg/dL; Triglycerides, median percent change from baseline (baseline to one year): −18.3%; Approximated LDL-C (Hopkins), median change from baseline [2]: -1.0 mg/dL; Approximated LDL-C (Hopkins), median percent change from baseline [2]: −1.2%; Triglycerides, median change from baseline [2]: -45.0 mg/dL; Triglycerides, median percent change from baseline [2]: −21.6%; Approximated LDL-C (Hopkins), median difference from placebo in percent change from baseline (last study value): −7.4%; Triglycerides, greater reduction than in the placebo group (one year): 44.5 mg/dL; Triglycerides, median reduction from baseline greater than in the placebo group (one year, Hodges-Lehmann approach): 19.7%; Approximated LDL-C (Hopkins), median difference from placebo in percent change from baseline (one year): −11.4%
